Here are results for four compounds from patent publication US20050075312A1, “Antitumor inhibitors and use thereof” (priority 2003, published 2005).

One data set relates to sarcoma 180. The data set is described as follows: solid tumor induced by sarcoma 180 tumor cells. Format: in vivo, ICR mice. To be noted: for tumor weight: control 7.1±0.1; for tumor weight / tumor volume: mean±S.E.M.; for tumor volume: control 8804±465.3. How it is done: For solid tumor development, ICR mice were injected with 0.1 ml of sarcoma 180 suspensions into the right hind limbs. After 6 days of tumor transplantation, mice randomized into six groups were injected i.p. with AS (50 and 100 mg/kg) and 5-FU (25 mg/kg) once a day for 9 days. Eight days later after treatment, animals were sacrificed by cervical […], and solid tumors were removed and weighed.

The test system of data set [1] is sarcoma 180 ascitic tumor. The data set is described as follows: survival time of mice with sarcoma 180 ascitic tumor. Format: in vivo.
Data set [2] relates to chick embryonic angiogenesis. Description: chorioallantoic membrane (CAM) assay. Format: in vivo, chicken. The note with it: for Eggs showing antiangiogenesis: avascular zone exceeded 3 mm. As to the method: The effect of acharan sulfate on the inhibition of angiogenesis was performed using the choroioallantoic membrane (CAM) assay. These assays essentially followed previously published procedures (Tanaka et al, 1986; Oikawa et al., 1990). In brief, fertilized chicken eggs were incubated in the constant humidified breeder at 37° C. On the third day of incubation, about 2 ml of egg albumin were aspirated by an 18-gauge hypodermic needle, to detach the developing CAM from the shell. One and half days later, sample-loaded thermanox coverslips (Nunc, Naperville, Ill.) were air-dried and applied to the CAM surface for testing of angiogenesis inhibition by AS. Two days later, 1 ml of 10% fat emulsion (Intralipose) was injected into the chorioallantoic membrane and the avascular zone was observed under a dissecting microscope. Inhibition of angiogenesis was assessed when the avascular zone exceeded 3 mm. In order to abolish the possibility of contaminant in AS, the depolymerized product by heparinase II as described above was also tested for the antiangiogenic activity. The concentration of AS used in this assay was selected based on the concentration of heparin that had previously been applied in the same assay (Collen et al., 2000).
On day 4.5, CAMs were treated with different doses of AS for 2 days. The dose-response relationship for the appearance of avascular zone was determined.

Data set [3] has as its system Lewis lung carcinoma cells. Description: tumor growth in Lewis lung carcinoma-bearing mice. It is filed as in vivo, C57BL/6 mice. To be noted: for tumor growth inhibited (volume): vs saline.
Data set [4] relates to Lewis lung carcinoma cells. Description: tumor growth in Lewis lung carcinoma-bearing mice. To be noted: for tumor volume: saline 4534.4; for mean tumor weight reduction: day 21, vs saline; for tumor weight: day 21, saline 4.5±0.7. It is filed as in vivo, C57BL/6 mice. As to the method:
Male C57BL/6 mice were inoculated s.c. in the back with LLC cells (1×10^6/animal) on day 0. After tumor volume was at least 60-100 mm^3, AS was administered into the subcutaneous region near the tumor mass at two doses of 10 and 30 mg/kg for 15 days. The size of tumors in all groups was measured using a dial-caliper and the volume of tumors was determined using the formula width^2×length×0.52 (Voest et al., 1995; Cao et al., 1995). The effects of AS on tumor growth and host survival were also measured by evaluating tumor volumes, tumor weights and percentage increase in lifespan of tumor hosts, respectively (Oguchi et al., 1987; Kusumoto, 1991). For calculating the survival time, mice were inoculated i.p. with […] sarcoma 180 cells/mouse on day 0 and the treatment with two doses of AS (50 and 100 mg/kg, i.p.) were started 24 h after inoculation for nine consecutive days. The control group was treated with saline. Median survival time (MST) for each group (n=7) was observed and the antitumor activity of the test compounds were compared with that of control group by measuring the increase in lifespan.

The subject of data set [5] is bFGF-induced angiogenesis. The data set is described as follows: mouse matrigel plug assay. It is filed as in vivo, C57BL/6J mice. As to the method:
The effect of acharan sulfate on the inhibition of angiogenesis was also evaluated in the matrigel plug assay. This assay was performed as previously described (Passaniti et al., 1992). Acharan sulfate, dissolved in water, bFGF and heparin, dissolved in 0.1% bovine serum albumen (BSA)/phosphate buffered saline (PBS) were mixed with liquid matrigel (Collaborative Biomedical Products, Bedford, Mass.) in proportions not exceeding 1% of the total volume of matrigel. A mixture of 0.5 ml matrigel with AS or vehicle was injected subcutaneously into C57BL/6J mice. After injection, the matrigel rapidly formed a plug. […] The amount of hemoglobin (Hb) inside the matrigel was measured using the Drabkin method (Drabkin and Austin, 1932) and Drabkin reagent 525 for the quantitation of blood vessel formation. The concentration of Hb was calculated based on a Hb standard measured simultaneously.
To evaluate the effect of AS on ongoing angiogenic process in the mouse matrigel plug assay matrigel, heparin (10 units/500 μl), and bFGF (100 ng/500 μl) with or without AS were injected s.c. into C57BL/6 mice. […] We next measured the hemoglobin content inside the matrigel plugs to quantify the angiogenesis. Whereas bFGF and heparin increased Hb concentration to 11.8 g/dl and the Hb concentration inside the control was 0.3 g/dl, AS decreased the heparin and bFGF-elevated Hb quantity to about 8.6 g/dl (FIG. 3). […]

Data set [6] has as its system calf pulmonary artery endothelial (CPAE) cells. The data set is described as follows: CPAE cell proliferation by MTT assay. Format: cell-based. To be noted: for growth inhibition: 3-day treatment. How it is done: The effect of acharan sulfate on in vitro cell proliferation was carried out using calf pulmonary artery endothelial (CPAE) cells as follows.
CPAE cells were seeded in a 24 well plate at a cell density of 10^5 cells/well in 90% RPMI and 10% FBS. After 24 h incubation, the cells were treated with various concentrations of AS. Three days later, new media and MTT solution were added to each well. After incubation at 37° C. for 4 h, the absorbance of treated cells at 540 nm was compared to that of control cells.
For orientation: Formazan colour is commonly taken as a measure of viable cells.

The next data set relates to matrix metalloprotease. The data set is described as follows: antiprotease activity. It is filed as biochemical.
The target of a further data set is bFGF (Homo sapiens, UniProt P09038). The note with it: in vitro (Wang et al., 1997); cited from earlier work.
The mark [7] stands for this setting: 50 mg/kg i.p. once a day for 9 days, vs control.
[8] abbreviates: 50 mg/kg i.p. once a day for 9 days.
[9] abbreviates: 10 mg/kg daily s.c., end of 15-day treatment.

“And” between values parts separate entries of the source, which are not always exact repeats. Identical values can stand only once.

Chain of bFGF (P09038 143-288, species assumed): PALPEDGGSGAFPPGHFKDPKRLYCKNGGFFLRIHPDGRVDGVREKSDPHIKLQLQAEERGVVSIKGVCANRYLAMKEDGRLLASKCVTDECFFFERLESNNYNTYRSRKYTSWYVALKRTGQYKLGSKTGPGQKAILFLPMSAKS

`O=c1[nH]cc(F)c(=O)[nH]1` [5-FU, 5-fluorouracil]: the tumor weight inhibited in the data set with sarcoma 180 (25 mg/kg i.p. once a day for 9 days, vs control) is 75.1% and 55.8%. Further, the tumor weight in the data set with sarcoma 180 (25 mg/kg i.p. once a day for 9 days) was 1.8 ± 0.3 g and 3.1 ± 0.3 g. For the same compound, the tumor volume decreased with sarcoma 180 (5-FU 25 mg/kg i.p. once a day for 9 days, vs control) amounted to 82.1%. The compound also yielded a tumor volume in the data set on sarcoma 180 (5-FU 25 mg/kg i.p. once a day for 9 days) of 1572±201.5 mm^3. For the same compound, the “median survival time (MST)” value in [1] (25 mg/kg, control 22.4±2.2) was determined as 42.8 ± 4.2 days.
With `CC1=C(/C=C/C(C)=C/C=C/C(C)=C/C(=O)O)C(C)(C)CCC1` [Retinoic acid, all-trans-retinoic acid, reference compound], the “% inhibition” value in [2] (1 μg/egg) is listed as 80%. The compound further displayed an Eggs showing antiangiogenesis in data set [2] (1 μg/egg, 25 eggs tested) of 20.
As for `COc1cccc2c1C(=O)c1c(O)c3c(c(O)c1C2=O)C[C@@](O)(C(=O)CO)C[C@@H]3O[C@H]1C[C@H](N)[C@H](O)[C@H](C)O1` [Doxorubicin], in [3] (10 mg/kg i.v. every five day, compared with control mice), the “loss of weight of treated mice” value was “marked”. Also, in data set [3] (10 mg/kg i.v. every five day, day 21, vs saline), the tumor weight reduction amounted to 68.0%. The tumor weight in data set [3] (10 mg/kg i.v. every five day, day 21, saline 4.5±0.7) is 1.6 ± 0.2 g. The injection area result in data set [3] (10 mg/kg i.v. every five day, over the treatment) is “significantly damaged”. For the same compound, the “tumor growth inhibited (volume)” value in data set [3] (10 mg/kg i.v. every five day) was found to be 62.0%. This compound also displayed a tumor volume in data set [3] (10 mg/kg i.v. every five day, saline 4534.4) of 1721.6 mm^3.
In the data set with sarcoma 180 (setting [7]), Acharan sulfate [AS] showed a tumor volume inhibited of 45.0%. The same compound gave a tumor weight inhibited in the data set on sarcoma 180 (setting [7]) of 39.6%. The tumor weight is 4.3 ± 0.1 g with sarcoma 180 (setting [8]), 2.8 ± 0.2 g in data set [4] (10 mg/kg s.c.) and 2.3 ± 0.2 g in data set [4] (30 mg/kg s.c.). For the same compound, the tumor volume came out at 4799±345.2 mm^3 with sarcoma 180 (setting [8]); 3049.2 mm^3 in [4] (setting [9]); 2809.3 mm^3 in data set [4] (30 mg/kg daily s.c., end of 15-day treatment). In addition, the “lifespan increased against the control group” value in data set [1] (30 mg/kg/day for 9 consecutive days) is on record as 1.5 fold. Further, the median survival time in data set [1] (30 mg/kg/day for 9 consecutive days, control 22.4±2.2) is 34.3 ± 2.6 days; in [1] (50 mg/kg/day for 9 consecutive days, control 22.4±2.2), 40.6 ± 3.1 days. For the same compound, the “lifespan prolonged against the control group” value in data set [1] (50 mg/kg/day for 9 consecutive days) is reported as 1.8 fold. Also, the “tumor growth inhibited (volume)” value in data set [3] (setting [9]) turned out to be 32.8%; in data set [4] (30 mg/kg daily s.c., end of 15-day treatment, vs saline), 38.1%. For the same compound, the “mean tumor weight reduction” value in [4] (10 mg/kg s.c.) was found to be 37.8%; in data set [4] (30 mg/kg s.c.), 48.9%. The “body weight of mice over the course of treatment” value in data set [4] (10 and 30 mg/kg s.c., 15 days) was “did not lose weight”. Further, the “vessel induction in matrigel” value in data set [5] (fifty micrograms of AS in combination with bFGF and heparin) is “slightly prevented the vessel induction”. Besides, the “Hb concentration inside the matrigel plug” value in data set [5] (fifty micrograms of AS with bFGF and heparin, s.c., seven days, bFGF and heparin alone 11.8, control 0.3) is on record as “about 8.6 g/dl”. The entries for the “% inhibition” value in data set [2] (5 μg/egg) and in data set [2] (10 μg/egg) were 48.3% and 55.6%, respectively. Moreover, the Eggs showing antiangiogenesis was 14 in data set [2] (5 μg/egg, 29 eggs tested) and 15 in data set [2] (10 μg/egg, 27 eggs tested). For the same compound, the growth inhibition is 15.2% in [6] (1 μg/ml) and 24.9% in data set [6] (10 μg/ml). In addition, in data set [6] (increasing concentrations, data not shown), the “cytotoxic effect on CPAE cell viability” value is listed as “no cytotoxic effect”. The antiprotease activity entry in the data set on matrix metalloprotease is given as “no detectable antiprotease activity”. Further, the “effect on heparin's bFGF mitogenicity” value on bFGF is listed as “interfered with heparin's bFGF mitogenicity in vitro”.

The term % inhibition denotes the percentage by which the read-out fell short of the control. A lower % inhibition goes with little suppression.
